The values below are quoted from earlier work in US6825040B2, “Method of using a vapor acid test kit” (Mainstream Engineering Corporation, priority 1995, dated 2004).

Each structure is given as a SMILES string. Where two headings read alike, the source gives them in different places.

The conditions of data set [1]: negative log of the dissociation equilibrium constant of the indicator.
The conditions of data set [2]: pH range of the indicator colour change.

In general, pKa refers to the pH at which an ionisable group is half protonated. With `O=C1OC(c2ccc(O)cc2)(c2ccc(O)cc2)c2ccccc21` [Phenolphthalein], the pKa in data set [1] is 9.4. Also, the “pH Range” value in data set [2] is reported as 8.0 to 10.0.

In the case of `Cc1cc(C2(c3cc(C)c(O)c(Br)c3)OS(=O)(=O)c3ccccc32)cc(Br)c1O` [Bromocresol purple, Dibromo-o-cresolsulfonephthalein], the “pH Range” value in data set [2] was 5.2 to 6.8.

For the compound `Cc1c(C2(c3cc(C(C)C)c(O)c(Br)c3C)OS(=O)(=O)c3ccccc32)cc(C(C)C)c(O)c1Br` [Bromothymol blue, Dibromothymolsulfonephthalein], the “pH Range” value in data set [2] is 6.2 to 7.6.

As to `Cc1c(C2(c3cc(Br)c(O)c(Br)c3C)OS(=O)(=O)c3ccccc32)cc(Br)c(O)c1Br` [Bromocresol green, Tetrabromo-m-cresolsulfonephthalein], in data set [1], the pKa was 4.58. Also, the “pH Range” value in data set [2] is listed as 4.0 to 6.8.

As for `CN(C)c1ccc(/N=N/c2ccccc2C(=O)O)cc1` [Methyl red, o-Carboxybenzeneazodimethylaniline], the pKa in data set [1] was 4.95. For the same compound, the “pH Range” value in data set [2] is on record as 4.4 to 6.2.

For the compound `O=S1(=O)OC(c2ccc(O)c(Cl)c2)(c2ccc(O)c(Cl)c2)c2ccccc21` [Chlorophenol red, Dichlorophenolsulfonephthalein], in data set [1], the pKa is 6.0. In data set [2], the “pH Range” value was 5.4 to 6.8.

On to `Cc1cc(O)c(C(C)C)cc1C1(c2cc(C(C)C)c(O)cc2C)OC(=O)c2ccccc21` [Thymolphthalein], for which the pKa in data set [1] was 10.0. Further, the “pH Range” value in data set [2] is given as 9.4 to 10.6.

For the compound `O=S(=O)([O-])c1ccc(N=Nc2ccc(O)cc2O)cc1.[Na+]` [Tropeolin 0, p-Sulfobenzeneazoresorcinol], in data set [2], the “pH Range” value was 11.0 to 13.0.

For `O=S(=O)([O-])c1ccc(N=Nc2ccc(Nc3ccccc3)cc2)cc1.[Na+]` [Tropeolin 00, Diphenylamino-p-benzene sodium sulfonate], the “pH Range” value in data set [2] is on record as 1.3 to 3.2.

As for `O=S1(=O)OC(c2ccc(O)c(Br)c2)(c2ccc(O)c(Br)c2)c2ccccc21` [Bromophenol red, Dibromophenolsulfonephthalein], the “pH Range” value in data set [2] was 5.2 to 6.8.

As to `Cc1cc(O)c(C(C)C)cc1C1(c2cc(C(C)C)c(O)cc2C)OS(=O)(=O)c2ccccc21` [Thymol blue (acid range), Thymolsulfonephthalein], the entries for the “pH Range” value in data set [2] and in data set [2] (listed as Thymol blue) were 1.2 to 2.8 and 8.0 to 9.6, respectively.

Take `CN(C)c1ccc(N=Nc2ccc(S(=O)(=O)[O-])cc2)cc1.[Na+]` [Methyl orange, Dimethylaminoazobenzene sodium sulfonate]: the pKa in data set [1] is 3.40. The “pH Range” value in data set [2] is recorded as 3.1 to 4.4.
